Here are results for 12 molecules from ChEMBL document CHEMBL1201862, “PubChem BioAssay data set” (2004).

Common to all, as to assay: NCI-60 cell line screen, 48 h
The test system of test [1] is A498.
In test [2] the test system is COLO 205.
The test system of test [3] is HCC 2998.
Test [4] relates to HL-60.
Test [5] deals with IGROV-1.
The test system of test [6] is LOX IMVI.
For test [7], the system named is M14.
Test [8] deals with MOLT-4.
Test [9] deals with Malme-3M.
Test [10] relates to NCI-H23.
For test [11], the system named is NCI-H460.
Test [12] relates to RPMI-8226.
The test system of test [13] is SK-MEL-28.
For test [14], the system named is SK-MEL-5.
The subject of test [15] is SW-620.
Test [16] concerns UACC-62.
Test [17] deals with SNB-19.

Structures are written as SMILES.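 These data come from cells grown in 96-well plates and exposed to compound for 48 hours at five concentrations. GI50 is the concentration that inhibits growth by half.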 The source made the active and inactive calls. Cut-off read from the data, not from the text of the source: active = GI50 up to about 1.1 µM and inactive = higher.

For `O=C(Nc1cccc([N+](=O)[O-])c1)C(=O)C(C(=O)c1ccccc1-c1ccccc1)C1OC(=O)c2ccccc21` (centres undefined), the GI50 was 23.2 µM (inactive) in [1]; 20 µM (inactive) in test [2]; 16.2 µM (inactive) in [3]; 16.2 µM (inactive) in test [4]; 30.8 µM (inactive) in test [5]; 17 µM (inactive) in test [6]. Besides, the GI50 is 17.8 µM (inactive) in test [7]; 13.2 µM (inactive) in test [8]; 13.6 µM (inactive) in test [9]; 14.7 µM (inactive) in test [10]; 25.9 µM (inactive) in test [11]; 13.4 µM (inactive) in [12]. Further, the GI50 in test [13] is 23.5 µM (inactive); in [14], 16.2 µM (inactive); in test [15], 27.2 µM (inactive); in test [16] it was 19.5 µM (inactive).
As to `O=C1COc2cc3c(cc2N1)SCCC(=O)N3`, the GI50 in test [1], in test [2], in test [3], in [4], in test [5] and in test [7] was > 100 µM (inactive) throughout. For the same molecule, the GI50 in [8], in test [9], in [10], in test [12], in [13] and in [14] was > 100 µM (inactive) in each case. Besides, the GI50 in [17], in [15] and in test [16] was > 100 µM (inactive) in each case.
Consider `O=C1NC2OC(CO)C(O)C(O)C2O1` (centres undefined), for which the GI50 in test [1], in test [2], in test [3], in [4], in test [5] and in test [6] was > 100 µM (inactive) throughout. Further, the GI50 in [7], in test [8], in test [9], in test [10], in test [11] and in test [13] was > 100 µM (inactive) in each case. For the same molecule, the GI50 in [14], in test [17], in test [15] and in [16] was > 100 µM (inactive) throughout.
As to `CC(=O)Oc1c2c(c(O)c3ccccc13)C(n1cnc3c(ncn3C3OC(CO)C4OC(C)(C)OC43)c1=N)CCC2` (centres undefined), the GI50 in test [1] was 17.3 µM (inactive); in test [2], 16.9 µM (inactive); in test [3], 15 µM (inactive); in test [4], 4.49 µM (inactive); in test [5] it was 20.2 µM (inactive); in [6], 4.81 µM (inactive). The GI50 is 11.1 µM (inactive) in test [8]; 11.2 µM (inactive) in test [9]; 16.8 µM (inactive) in [10]; 23.3 µM (inactive) in test [11]; 3.1 µM (inactive) in test [12]; 17.5 µM (inactive) in test [13]. Moreover, the GI50 is 12.1 µM (inactive) in test [14], 16 µM (inactive) in test [17], 15.3 µM (inactive) in test [15] and 13.9 µM (inactive) in test [16].
Take `COC(=O)C(=O)C(CC(=O)Nc1cccc(C(F)(F)F)c1)C(=O)OC` (centres undefined): the GI50 in [1], in test [2], in test [3], in test [4], in test [5] and in test [6] was > 100 µM (inactive) in each case. Further, the GI50 in [7], in [8], in test [9], in test [10], in test [11] and in [12] was > 100 µM (inactive) in each case. Further, the GI50 in test [13], in test [14], in [17], in test [15] and in test [16] was > 100 µM (inactive) throughout.
Turning to `O=C(Cc1nc2ccccc2o1)C(=O)Nc1ccccc1C(F)(F)F`, the GI50 in [1], in test [2], in [3], in test [4], in [5] and in test [6] was > 100 µM (inactive) each time. Further, the GI50 in test [7], in [9], in test [10], in test [11], in [12] and in test [14] was > 100 µM (inactive) in each case. In addition, the GI50 in test [17], in [15] and in [16] was > 100 µM (inactive) throughout.
Take `Cc1ccc(C[P+]2(c3ccccc3)CCCCC2)cc1.[O-][Cl+3]([O-])([O-])[O-]`: the GI50 in [1] was > 100 µM (inactive); in [2], 14 µM (inactive); in test [3], 21 µM (inactive); in [4] it was 10.8 µM (inactive); in [5], 21.3 µM (inactive); in [6], 26.2 µM (inactive). Moreover, the GI50 in test [7] was 25.8 µM (inactive); in test [8], 33 µM (inactive); in test [9], 25.5 µM (inactive); in [10], 24.7 µM (inactive); in test [11], 37.6 µM (inactive); in [12], 7.43 µM (inactive). For the same molecule, the GI50 in test [13] was 27.7 µM (inactive); in [14], 10.6 µM (inactive); in test [17], 32.3 µM (inactive); in test [15] it was 33.3 µM (inactive); in test [16], 23 µM (inactive).
For the molecule `O/N=C(\C(=N/O)Nc1ccc(-c2ccc(NC(=N/O)/C(=N\O)c3ccccc3)cc2)cc1)c1ccccc1`, the GI50 was 24.1 µM (inactive) in test [1]; 16.7 µM (inactive) in test [2]; 0.214 µM (active) in [3]; 27.9 µM (inactive) in test [4]; 25.1 µM (inactive) in test [5]; 15.3 µM (inactive) in [6]. Moreover, the GI50 was 17.9 µM (inactive) in test [7]; 17.3 µM (inactive) in test [8]; 19.4 µM (inactive) in [9]; 17.5 µM (inactive) in [10]; 17.3 µM (inactive) in test [11]; 25.9 µM (inactive) in test [12]. For the same molecule, the GI50 in test [14] is 20.3 µM (inactive); in [17] it was 19.2 µM (inactive); in [15], 22.2 µM (inactive); in test [16], 18.5 µM (inactive).
As to `Cc1cccc(C(C)(C)C)c1NC(=O)CC1Sc2ccccc2NC1=O` (centres undefined), the GI50 in [1] was > 100 µM (inactive); in [2], 24 µM (inactive); in test [3], > 100 µM (inactive); in [4], 46.1 µM (inactive); in test [5], > 100 µM (inactive); in test [7] it was > 100 µM (inactive). Moreover, the GI50 is 43.3 µM (inactive) in test [8]; > 100 µM (inactive) in test [9]; 46.6 µM (inactive) in test [10]; 34 µM (inactive) in test [11]; 19 µM (inactive) in [12]; > 100 µM (inactive) in test [13]. Moreover, the GI50 is > 100 µM (inactive) in [14], > 100 µM (inactive) in test [17], 17.3 µM (inactive) in test [15] and 68.7 µM (inactive) in [16].
With `COC(=O)C(C#CCCCCC#CC(NC(=O)OCc1ccccc1)(C(=O)OC)C(F)(F)F)(NC(=O)OCc1ccccc1)C(F)(F)F` (centres undefined), the GI50 in test [1], in [2], in [3], in test [4], in [5] and in [6] was > 100 µM (inactive) in each case. The GI50 is > 100 µM (inactive) in test [7]; > 100 µM (inactive) in test [9]; > 100 µM (inactive) in test [10]; > 100 µM (inactive) in test [11]; 4.36 µM (inactive) in test [12]; > 100 µM (inactive) in [13]. The GI50 in test [14], in [17], in test [15] and in test [16] was > 100 µM (inactive) each time.
With `COc1ccc2ccc([Se]c3ccc4ccc(OC)cc4c3)cc2c1`, the GI50 in test [1], in [2], in [3], in test [4], in [5] and in test [6] was > 100 µM (inactive) throughout. Besides, the GI50 is > 100 µM (inactive) in test [7]; 63.2 µM (inactive) in [8]; > 100 µM (inactive) in test [9]; > 100 µM (inactive) in test [10]; 89.1 µM (inactive) in [11]; 49.9 µM (inactive) in [12]. Moreover, the GI50 in test [13] is > 100 µM (inactive); in test [14] it was > 100 µM (inactive); in [17] it was 23.3 µM (inactive); in test [15], > 100 µM (inactive); in test [16] it was > 100 µM (inactive).
As to `CC#C[C@@]1(O)CCCCC1O` (some centres undefined), the GI50 in test [1], in test [2], in test [3], in [4], in [5] and in test [6] was > 100 µM (inactive) each time. The GI50 in [7], in test [8], in test [9], in test [10], in test [11] and in test [12] was > 100 µM (inactive) throughout. Besides, the GI50 in test [13], in [14], in test [17], in test [15] and in test [16] was > 100 µM (inactive) in each case.
